Measured values published in US11358931B2, “Selective androgen receptor modulators (SARMs) and uses thereof” (priority 2007, dated 2022).
pEC50: −log10 of the molar value.

Legend:
hAR = hAR (Homo sapiens, UniProt P10275); experiment: cell-based
[1] = Metabolic stability in liver microsomes; assay type: in vitro ADME; details: rat liver microsomes, 37° C., pH 7.4, average of 2 experiments; read-out: half-life for degradation
Description: Liver microsomes are subcellular fractions that contain drug-metabolizing enzymes, such as cytochrome P450, flavin monooxygenases and UDP glucuronyl transferases. […] Rat liver microsomes are a commonly used animal model for determination of drug metabolism (e.g., see Shayeganpour et al., Drug Metab Dispos 34 (1): 43-50 (2006)).
The metabolism of Compound 102 was evaluated in rat liver microsomes. The metabolism was initiated by adding 25 μL of cofactor (100 mM of glucose 6-phosphate, 20 mM of NADP, […], and 63 mM of UDPGA) to wells containing 50 μL of 5 mg/mL of rat liver microsomes and 425 μL of 0.59 mM of Compound 102 made in 100 mM phosphate buffer (pH 7.4) at 37° C. At 0, 5, 10 and 20 minutes, a 60 μL aliquot of the sample was withdrawn. The unmetabolized test substance remaining in the sample was determined using HPLC and mass spectrometry and the half-life for degradation of the compound was calculated in minutes using curve fitting.

[2] = Toxicokinetics in Sprague Dawley rats (14-day oral study); assay type: in vivo, rat
Description: A Sprague Dawley Rat model was used to study oral toxicity and toxicokinetics. Animals were assigned to groups by a stratified randomization scheme designed to achieve similar group mean body weights and the groups were randomly assigned to a dosing to provide control of bias.
All animals were dosed via oral gavage once daily for 14 days. The animals were evaluated for changes in clinical signs (mortality/morbidity observations, twice daily), cage side observations (general appearance and behavior), food consumption (quantitatively measured by weighing), body weights, clinical pathology indices including serum chemistry, hematology, coagulation and urinalysis, and other parameters. Blood samples were collected for toxicokinetics analysis from Groups 6-10 at various time points on Days 1 and 14 (Group 6 4 hours post dose; Groups 7-10 at 1, 4 and 12 hours or 2, 8 and 24 hours). The animals were fasted for at least 8 hours prior to blood collections for serum chemistry and urine collection. Serum chemistry parameters tested included alanine aminotransferase, total protein, aspartate aminotransferase, albumin, alkaline phosphatase, globulin, gamma-glutamyl-transferase, albumin/globulin ratio, lactate dehydrogenase, glucose, total bilirubin, cholesterol, urea nitrogen, triglycerides, creatinine, sodium, calcium, potassium, phosphorus and chloride. Hematology parameters analyzed included red blood cell count, reticulocyte count, hemoglobin concentration, red blood cell distribution width, mean corpuscular volume, mean platelet volume, mean corpuscular hemoglobin concentration, white blood cell count and differentials and mean corpuscular hemoglobin. Urinalysis parameters included color/character, ketones, specific gravity, bilirubin, pH, occult blood, protein, glucose and microscopics. Main study animals were euthanized on Day 15. At termination, a full necropsy was conducted and all tissues were collected, preserved, processes and examined microscopically from Groups 1 and 5, and target organs (liver and kidney) from Groups 2-4, by a veterinary pathologist certified by the American College of Veterinary Pathologists.

[3] = Toxicokinetics in cynomolgus monkeys (14-day oral study); assay type: in vivo, cynomolgus monkey
Description: A study was performed to determine any potential toxicity and the toxicokinetic profile of Compound 102 when administered orally (via nasal gavage) to cynomolgus monkeys for at least 14 days. The cynomolgus monkey was chosen for this study as it is a non-rodent species that is commonly used for non-clinical toxicity evaluations. Use of the monkey model maximized the likelihood of identifying toxicological responses that may occur in humans. Ten experimentally naïve cynomolgus monkeys (5 male and 5 female) from about 2.5 to 3 years of age and weighing between about 2.3 to about 2.8 kg at Day −1 of the study were assigned to dose groups as shown in Table 6 below.
All animals were dosed via nasal gavage once daily for 14 consecutive days. The first day of dosing was designated Day 1 for all animals. The animals were evaluated for clinical signs (evaluation of mortality and morbidity, twice daily), cage side observations and food consumption (once daily), body weight (Days 1, 8 and 14), physical examination (Day −5 and post dosing following the 13/24 hour toxicokinetic collection on Day 14), ophthalmic examination (prestudy and owing the Day 13/24 hour toxicokinetic collection on Day 14), and clinical pathology parameters (serum chemistry, hematology and coagulation on Days −3 and 14), urine samples were collected during necropsy (Day 15) for urinalysis. Blood samples were collected for toxicokinetic analysis at 1, 2, 4, 8, 12 and 24 hours post dose on Days 1 and 13.

[4] = Oral bioavailability in animal species; details: multiple animal species, including monkeys

Sequence of hAR (P10275 whole entry): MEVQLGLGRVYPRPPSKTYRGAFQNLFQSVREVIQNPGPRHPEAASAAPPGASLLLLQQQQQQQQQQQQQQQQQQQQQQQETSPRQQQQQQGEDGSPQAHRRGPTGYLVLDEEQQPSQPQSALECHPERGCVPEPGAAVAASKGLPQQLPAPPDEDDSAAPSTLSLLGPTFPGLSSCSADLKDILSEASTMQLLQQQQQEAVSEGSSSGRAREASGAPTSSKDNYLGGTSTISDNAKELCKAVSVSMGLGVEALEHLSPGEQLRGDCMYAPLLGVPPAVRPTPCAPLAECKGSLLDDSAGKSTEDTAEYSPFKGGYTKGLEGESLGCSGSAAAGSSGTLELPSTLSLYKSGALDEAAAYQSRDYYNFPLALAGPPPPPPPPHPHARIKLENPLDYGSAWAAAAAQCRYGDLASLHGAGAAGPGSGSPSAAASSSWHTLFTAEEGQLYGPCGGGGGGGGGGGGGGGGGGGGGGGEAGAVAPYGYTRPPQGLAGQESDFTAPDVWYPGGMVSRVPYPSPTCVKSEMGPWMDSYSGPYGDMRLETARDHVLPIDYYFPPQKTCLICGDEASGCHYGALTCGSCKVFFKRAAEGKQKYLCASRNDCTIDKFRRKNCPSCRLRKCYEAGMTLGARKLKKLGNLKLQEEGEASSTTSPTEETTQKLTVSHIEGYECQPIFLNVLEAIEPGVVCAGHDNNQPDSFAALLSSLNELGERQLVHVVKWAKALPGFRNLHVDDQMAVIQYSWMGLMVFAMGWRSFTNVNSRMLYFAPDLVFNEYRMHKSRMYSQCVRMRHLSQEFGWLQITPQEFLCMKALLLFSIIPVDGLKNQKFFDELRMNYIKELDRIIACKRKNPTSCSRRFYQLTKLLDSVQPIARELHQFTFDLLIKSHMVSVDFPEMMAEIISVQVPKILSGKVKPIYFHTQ

SMILES: N#Cc1ccc(N2CCC[C@@H]2[C@@H](O)C(F)(F)F)cc1C(F)(F)F [Compound 102, R,R-4-(2-(1-Hydroxyl-2,2,2-trifluoroethyl)-pyrrolidinyl)-2-trifluoromethyl-benzonitrile]
- pEC50 (hAR): 8.51
- Emax (hAR; MDA-MB-453, read-out: efficacy relative to dihydrotestosterone (DHT)): 59%
- half-life at 0.5 mM [1]: 44.5 min
- sex difference of systemic exposure ([2]; Day 1): higher systemic exposure in females across all dose levels
- systemic exposure at 700 mg/kg/day ([2]; Day 1, 700 mg/kg/day): not increased, indicating that absorption was saturated
- systemic exposure versus dose ([2]; Day 1, male and female rats): increased with increasing dose up to 300 mg/kg/day
- effect of repeat administration on systemic exposure ([2]; Day 14 vs Day 1, more pronounced in high dose groups): decreased systemic exposure
- sex difference in toxicokinetic parameters ([3]; Day 1 and Day 13): no noticeable sex difference
- effect of repeat administration on systemic exposure ([3]; Day 13 relative to Day 1): decreased on Day 13
- systemic exposure versus dose ([3]; both sexes): increased with increasing dose up to 450 mg/kg
- oral bioavailability [4]: orally bioavailable
